# Test results reported in BindingDB's records for doi:10.1016/j.bmcl.2014.02.013 (Bristol-Myers Squibb, 2014).
# Assay: Antagonist activity at CCR2 in human monocytes assessed as reduction of chemotaxis in presence of […] BSA
row,SMILES,IC50 [pM]
1,CC(C)N(C)[C@@H]1CC[C@H](N2CC[C@H](NC(=O)c3cccc(C(F)(F)F)c3)C2=O)[C@H](CS(C)(=O)=O)C1,2600
2,CCS(=O)(=O)C[C@@H]1C[C@H](N(C)C(C)C)CC[C@@H]1N1CC[C@H](NC(=O)c2cccc(C(F)(F)F)c2)C1=O,600
3,CC(C)N(C)[C@@H]1CC[C@H](N2CC[C@H](NC(=O)c3cccc(C(F)(F)F)c3)C2=O)[C@H](CS(=O)(=O)C(C)C)C1,200
4,CC(C)N(C)[C@@H]1CC[C@H](N2CC[C@H](NC(=O)c3cccc(C(F)(F)F)c3)C2=O)[C@H](CS(=O)(=O)C(C)(C)C)C1,200
